Results on 53 sequences are retold here after patent US8815503B2, “Compositions and methods for immunostimulatory RNA oligonucleotides” (Rheinische Friedrich-Wilhelms-Universitat Bonn, priority 2005, dated 2014).

This series relates to PBMC. As to the kind of experiment: 193 ssRNA 4mer-motif library screen: IL-12 (IL-12p40) production in PBMC of six donors, poly-L-Arg complexation, ELISA at 44 hours, IL-12 index and adjusted IL-12 index. It is filed as cell-based, human. Further details: key to Adjusted IL-12 index Mean: IL-12 index (ratio to 9.2sense) minus donor mean, averaged over 6 donors. Conditions: 193 ssRNA oligonucleotide library; data from six individual donors summarized; ascending order. The procedure:
FIG. 9: PBMC of six different healthy donors were isolated and stimulated with poly-L-arginine complexed ssRNA oligonucleotides in duplicates. 44 hours after stimulation IL-12p40 production was assessed in supernatant via ELISA. For all tested ssRNA oligonucleotides (table 3), the mean values of the measured duplicates were normalized to the positive control ssRNA oligonucleotide 9.2sense (5′-AGCUUAACCUGUCCUUCAA (SEQ ID NO: 194)) by dividing the mean value of tested oligonucleotide by the mean value of 9.2sense (=IL-12 index of a given oligonucleotide). Next, all individual IL-12 indices were adjusted to the mean value of all IL-12 indices by subtracting the mean value of all IL-12 indices from the individual IL-12 index of a given oligonucleotide (=adjusted IL-12 index). Data from six individual donors were summarized and were assorted in ascending order displaying the corresponding SEM (for a complete listing including numerical data see table 4). FIG. 9A discloses SEQ ID NOS 460-509, respectively, in order of appearance. FIG. 9B discloses SEQ ID NOS 510-559, respectively, in order of appearance. FIG. 9C discloses SEQ ID NOS 560-609, respectively, in order of appearance. FIG. 9D discloses SEQ ID NOS 610-652, respectively, in order of appearance.
All 193 ssRNA oligonucleotides were tested on PBMC of six individual healthy donors using poly-L-Arg for complexation. At 44 hours after stimulation with RNA oligonucleotides, supernatants were collected and IL-12 production was measured by ELISA. Prior to statistical analysis the raw data were processed as follows: for each cell culture plate the mean IL-12 value of the experimental duplicates for each tested ssRNA oligonucleotide were normalized to the ssRNA oligonucleotide RNA9.2sense (5′-AGCUUAACCUGUCCUUCAA-3′ (SEQ ID NO: 194)). This standard RNA oligonucleotide was included as a positive control on all cell culture plates. Normalization was performed by calculating the ratio of IL-12 induced by the tested oligonucleotide and IL-12 induced by the standard oligonucleotide RNA9.2sense. Thus, for each tested oligonucleotide in an individual donor a mean ratio of IL-12 induction was obtained. In the following, this mean of the ratios is referred to as IL-12 index (one value of IL-12 index per donor). […] The corresponding IL-12 index of oligonucleotide ANP175 for donor 3 was calculated to be 1.90 (=1725 pg/ml divided by 908 pg/ml).
Next, the means of all IL-12 indices for every individual donor were calculated. Then the adjusted IL-12 indices were calculated as IL-12 index minus the mean of all IL-12 indices of one individual donor. […] The adjusted IL-12 index of ANP175 was calculated: 1.90 minus 0.44=1.46. The adjusted IL-12 indices from all six donors were summarized by calculating the means and the corresponding standard error of mean. The data are depicted in ascending order (FIG. 9A, B, C, D). The adjusted IL-12 indices of the top thirty ssRNA oligonucleotides of all six donors were compared using a two-tailed Student's t-test (FIG. 10). For most combinations tested, a significant difference was observed when the interval between the analyzed pairs was at least eight or nine places in the assortment.
For orientation: In an ELISA, binding on a coated surface is turned into a signal by an enzyme label.

“AAAAAAACGGGAAAAAAAA (RNA, backbone not given here) [ANP-Oligo 081]”: the “Adjusted IL-12 index Mean” value is on record as −0.63.

Regarding “AAAAAAACGGUAAAAAAAA (RNA, backbone not given here) [ANP-Oligo 082]”, the “Adjusted IL-12 index Mean” value stood at 0.29.

Consider “AAAAAAACGUCAAAAAAAA (RNA, backbone not given here) [ANP-Oligo 083]”, for which the “Adjusted IL-12 index Mean” value is −0.27.

For “AAAAAAACGUGAAAAAAAA (RNA, backbone not given here) [ANP-Oligo 084]”, the “Adjusted IL-12 index Mean” value is −0.2.

For “AAAAAAACGUUAAAAAAAA (RNA, backbone not given here) [ANP-Oligo 085]”, the “Adjusted IL-12 index Mean” value is 0.57.

Regarding “AAAAAAACUACAAAAAAAA (RNA, backbone not given here) [ANP-Oligo 086]”, the “Adjusted IL-12 index Mean” value was −0.46.

For “AAAAAAACUAGAAAAAAAA (RNA, backbone not given here) [ANP-Oligo 087]”, the “Adjusted IL-12 index Mean” value is −0.03.

In the case of “AAAAAAACUAUAAAAAAAA (RNA, backbone not given here) [ANP-Oligo 088]”, the “Adjusted IL-12 index Mean” value came to 0.3.

As to “AAAAAAACUCCAAAAAAAA (RNA, backbone not given here) [ANP-Oligo 089]”, the “Adjusted IL-12 index Mean” value was −0.42.

In the case of “AAAAAAACUCGAAAAAAAA (RNA, backbone not given here) [ANP-Oligo 090]”, the “Adjusted IL-12 index Mean” value was −0.54.

Regarding “AAAAAAACUCUAAAAAAAA (RNA, backbone not given here) [ANP-Oligo 091]”, the “Adjusted IL-12 index Mean” value was −0.33.

Consider “AAAAAAACUGCAAAAAAAA (RNA, backbone not given here) [ANP-Oligo 092]”, for which the “Adjusted IL-12 index Mean” value is recorded as 0.

For the sequence “AAAAAAACUGGAAAAAAAA (RNA, backbone not given here) [ANP-Oligo 093]”, the “Adjusted IL-12 index Mean” value is recorded as −0.31.

“AAAAAAACUGUAAAAAAAA (RNA, backbone not given here) [ANP-Oligo 094]”: the “Adjusted IL-12 index Mean” value was 0.9.

In the case of “AAAAAAACUUCAAAAAAAA (RNA, backbone not given here) [ANP-Oligo 095]”, the “Adjusted IL-12 index Mean” value was −0.39.

As for “AAAAAAACUUGAAAAAAAA (RNA, backbone not given here) [ANP-Oligo 096]”, the “Adjusted IL-12 index Mean” value was −0.14.

Consider “AAAAAAACUUUAAAAAAAA (RNA, backbone not given here) [ANP-Oligo 097]”, for which the “Adjusted IL-12 index Mean” value is recorded as −0.1.

With “AAAAAAAGAACAAAAAAAA (RNA, backbone not given here) [ANP-Oligo 098]”, the “Adjusted IL-12 index Mean” value is −0.6.

As to “AAAAAAAGAAGAAAAAAAA (RNA, backbone not given here) [ANP-Oligo 099]”, the “Adjusted IL-12 index Mean” value is −0.61.

As to “AAAAAAAGAAUAAAAAAAA (RNA, backbone not given here) [ANP-Oligo 100]”, the “Adjusted IL-12 index Mean” value is 0.01.

“AAAAAAAGACCAAAAAAAA (RNA, backbone not given here) [ANP-Oligo 101]”: the “Adjusted IL-12 index Mean” value is recorded as −0.6.

As for “AAAAAAAGACGAAAAAAAA (RNA, backbone not given here) [ANP-Oligo 102]”, the “Adjusted IL-12 index Mean” value is recorded as −0.64.

Turning to “AAAAAAAGACUAAAAAAAA (RNA, backbone not given here) [ANP-Oligo 103]”, the “Adjusted IL-12 index Mean” value is −0.25.

On to “AAAAAAAGAGCAAAAAAAA (RNA, backbone not given here) [ANP-Oligo 104]”, for which the “Adjusted IL-12 index Mean” value is −0.61.

For the sequence “AAAAAAAGAGGAAAAAAAA (RNA, backbone not given here) [ANP-Oligo 105]”, the “Adjusted IL-12 index Mean” value is −0.62.

“AAAAAAAGAGUAAAAAAAA (RNA, backbone not given here) [ANP-Oligo 106]”: the “Adjusted IL-12 index Mean” value came to 0.21.

In the case of “AAAAAAAGAUCAAAAAAAA (RNA, backbone not given here) [ANP-Oligo 107]”, the “Adjusted IL-12 index Mean” value is −0.2.

For the sequence “AAAAAAAGAUGAAAAAAAA (RNA, backbone not given here) [ANP-Oligo 108]”, the “Adjusted IL-12 index Mean” value is 0.08.

As for “AAAAAAAGAUUAAAAAAAA (RNA, backbone not given here) [ANP-Oligo 109]”, the “Adjusted IL-12 index Mean” value is reported as 0.22.

With “AAAAAAAGCACAAAAAAAA (RNA, backbone not given here) [ANP-Oligo 110]”, the “Adjusted IL-12 index Mean” value was −0.58.

“AAAAAAAGCAGAAAAAAAA (RNA, backbone not given here) [ANP-Oligo 111]”: the “Adjusted IL-12 index Mean” value was −0.32.

Consider “AAAAAAAGCAUAAAAAAAA (RNA, backbone not given here) [ANP-Oligo 112]”, for which the “Adjusted IL-12 index Mean” value is given as 0.08.

As for “AAAAAAAGCCCAAAAAAAA (RNA, backbone not given here) [ANP-Oligo 113]”, the “Adjusted IL-12 index Mean” value was −0.54.

As to “AAAAAAAGCCGAAAAAAAA (RNA, backbone not given here) [ANP-Oligo 114]”, the “Adjusted IL-12 index Mean” value is listed as −0.58.

Regarding “AAAAAAAGCCUAAAAAAAA (RNA, backbone not given here) [ANP-Oligo 115]”, the “Adjusted IL-12 index Mean” value is reported as 0.15.

“AAAAAAAGCGCAAAAAAAA (RNA, backbone not given here) [ANP-Oligo 116]”: the “Adjusted IL-12 index Mean” value is reported as −0.58.

For “AAAAAAAGCGGAAAAAAAA (RNA, backbone not given here) [ANP-Oligo 117]”, the “Adjusted IL-12 index Mean” value was −0.63.

As to “AAAAAAAGCGUAAAAAAAA (RNA, backbone not given here) [ANP-Oligo 118]”, the “Adjusted IL-12 index Mean” value is given as 0.1.

Consider “AAAAAAAGCUCAAAAAAAA (RNA, backbone not given here) [ANP-Oligo 119]”, for which the “Adjusted IL-12 index Mean” value is listed as −0.48.

For the sequence “AAAAAAAGCUGAAAAAAAA (RNA, backbone not given here) [ANP-Oligo 120]”, the “Adjusted IL-12 index Mean” value is listed as −0.38.

“AAAAAAAGCUUAAAAAAAA (RNA, backbone not given here) [ANP-Oligo 121]”: the “Adjusted IL-12 index Mean” value was 0.24.

As for “AAAAAAAGGACAAAAAAAA (RNA, backbone not given here) [ANP-Oligo 122]”, the “Adjusted IL-12 index Mean” value is reported as −0.43.

As to “AAAAAAAGGAGAAAAAAAA (RNA, backbone not given here) [ANP-Oligo 123]”, the “Adjusted IL-12 index Mean” value is −0.51.

Turning to “AAAAAAAGGAUAAAAAAAA (RNA, backbone not given here) [ANP-Oligo 124]”, the “Adjusted IL-12 index Mean” value is given as 0.63.

As to “AAAAAAAGGCCAAAAAAAA (RNA, backbone not given here) [ANP-Oligo 125]”, the “Adjusted IL-12 index Mean” value is listed as −0.54.

As for “AAAAAAAGGCGAAAAAAAA (RNA, backbone not given here) [ANP-Oligo 126]”, the “Adjusted IL-12 index Mean” value is reported as −0.54.

Take “AAAAAAAGGCUAAAAAAAA (RNA, backbone not given here) [ANP-Oligo 127]”: the “Adjusted IL-12 index Mean” value is 0.11.

Turning to “AAAAAAAGGGCAAAAAAAA (RNA, backbone not given here) [ANP-Oligo 128]”, the “Adjusted IL-12 index Mean” value was −0.64.

For “AAAAAAAGGGGAAAAAAAA (RNA, backbone not given here) [ANP-Oligo 129]”, the “Adjusted IL-12 index Mean” value is reported as −0.51.

Regarding “AAAAAAAGGGUAAAAAAAA (RNA, backbone not given here) [ANP-Oligo 130]”, the “Adjusted IL-12 index Mean” value is given as −0.44.

Turning to “AAAAAAAGGUCAAAAAAAA (RNA, backbone not given here) [ANP-Oligo 131]”, the “Adjusted IL-12 index Mean” value came to 0.12.

As for “AAAAAAAGGUGAAAAAAAA (RNA, backbone not given here) [ANP-Oligo 132]”, the “Adjusted IL-12 index Mean” value came out at 0.47.

On to “AAAAAAAGGUUAAAAAAAA (RNA, backbone not given here) [ANP-Oligo 133]”, for which the “Adjusted IL-12 index Mean” value came to 1.51.
